Common to all, as to type: in vivo
For data set [1], the system named is rats. Kind of data set: Placing reflex (cumulative placing score) after intrathecal injection. The following applies: rat; for Cumulative Placing Score: median (range). On the procedure:
(§1) Rats were tested before 15 minutes through 240 minutes after intrathecal injection of 5 nmoles (in 10 μl) of 6-[2-(1(2)H-tetrazole-5-yl)ethyl]decahydroisoquinolone-3-carboxylic acid. Sensory function was tested at the hindpaw using withdrawal response to pinprick and withdrawal to pinch with a sharp forceps. Motor performance (ambulation, the placing reflex and Rotarod time), blood pressure and heart rate was also evaluated. Some tests were repeated the next day. Responses after 6-[2-(1(2)H-tetrazole-5-yl)ethyl]decahydroisoquinolone-3-carboxylic acid were compared to injection of 40 μl of bupivacaine, 0.75%. Pinprick responses at the forepaw, chest, abdomen, hindleg and hindpaw were also examined after intrathecal 6-[2-(1(2)H-tetrazole-5-yl)ethyl]decahydroisoquinolone-3-carboxylic acid.
(§2) Rats were anesthetized with halothane. The lumbar region was shaved, prepared with povidone-iodine, made kyphotic and incised 2 to 3 cm longitudinally in the midline at the level of the iliac crests. The space between the 5th and 6th lumbar vertebrae was punctured with 23G hypodermic needle and a 32G PU catheter (10 cm length, OD 0.0107 inches and ID 0.005 inches) reinforced with a Teflon coated stainless steel stylet (0.003 inches) was advanced through the needle cranially. The needle and the stylet were removed and the catheter withdrawn so that 6.5-7 cm extended outside of the lumbar masculature. The catheter was fixed to the fascia, sutured, inserted into an 8 cm length of PE-10 tubing and secured with glue covered with epoxy. The catheter was tunneled under the skin to the cervical region, flushed with saline and sealed with a cautery pen. The dead space of the catheter was 4.5 to 5 μl. The skin was closed and the rat was allowed to recover from anesthesia for 2-3 days.
(§3) Rats were trained over a two-day period. Training began by placing the rat on a Rotarod (Stoelting, Wood Dale, Ill.) that was fixed for three minutes. Then, three series of trials separated by 2-3 hours were performed. During each trial, the rat was placed on the Rotarod accelerating for the first 20 s then at a constant rate of approximately 5 rpm, until a 180 s cut off time. If the rat fell at any time during the initial trial, the trial was repeated. Each rat was allowed three attempts per trial. On the second day, the same procedure was repeated, though acceleration was sustained for 120 s to approximately 12 rpm, with a 150 second cut off time. On day 3, the test day, rats are again placed on the Rotarod and accelerated for 120 seconds to 12 rpm with the cutoff time of 150 seconds. Each rat was permitted 4 attempts at 15 minute intervals. Those successful in 2 of the 4 attempts continued in the protocol, and the average of the 4 attempts was considered the baseline (pre). After a two-hour period, the test drug was administered and rats were examined once on the Rotarod at 30, 60, 90, 120, 180, and 240 minutes. […] Then the placing reflex was tested. Rats were placed on a table and the dorsum of either hindpaw was drawn across the edge of the table; this elicits a lifting of the paw onto the surface of the table (2=normal; 1=delay of 1-2 sec.; 0=more than 2 sec.). This test was performed 3 times for each hindlimb after each ambulation test. The sum of the three trials on both paws were recorded ([…]).
(§4) The dose and volume of drugs injected intrathecally were determined from the dose required to produce hindlimb sensory and motor loss in preliminary experiments. Bupivacaine HCl (0.75% in 8.25% dextrose for spinal injection) was purchased from Abbott Laboratories (Chicago, Ill.). The intrathecal injection volume was 40 μl. The compound was dissolved in 10% dextrose and water. The injection volume was 1 ul. All intrathecal drug injections were followed by a flush of 10 μl preservative-free saline.

The subject of data set [2] is rats. In words: Overall sensory and motor blockade of the hindlimbs after intrathecal injection. Conditions: rat. On the procedure:
as §1, §2, §4

Data set [3] has as its system rats. In words: Withdrawal response to pinprick at the hindpaw after intrathecal injection. The following applies: rat. On the procedure: as §1, §2
First, the withdrawal response to pinprick was tested on each hindpaw. A 5 mm long tip of a safety pin attached to a von Frey filament (520 mN) was applied once to the plantar aspect of each hindpaw. Either a withdrawal response or a reaction occurred (1=positive response) or no withdrawal (0=no response). The sum of the scores (0, 1 or 2) for each rat was recorded. If no response or reaction was elicited by pinprick, a serrated dissecting forceps was used to pinch the skin of the plantar region for 2-3 sec. Again, withdrawal or reaction was considered a positive response (score=1) and the absence of both a negative test (score=0). […] Because the response to pinch was quite vigorous and rats were subjected to repeated tests in a single day, only rats unresponsive to pinprick were tested for pinch. If pinprick evoked a response, pinch was designated as positive also. The sum of the scores after pinch (0, 1 or 2) was recorded.
as §4

Data set [4] has as its system rats. In words: Mean arterial pressure and heart rate via carotid artery catheter after intrathecal injection. The following applies: rat. On the procedure:
as §1
For blood pressure measurement, the paratracheal region was shaved, prepared with povidone-iodine, and incised 1.5-2 cm longitudinally lateral to the midline. The carotid artery was isolated and cannulated with PE-50 tubing that had been stretched by exposing the distal end to heat. The catheter secured and tunneled subcutaneously to the posterior neck region. The skin was closed with 4-0 silk and the rat was allowed to recover for 2-3 days before experiments began.
The mean arterial pressure and heart rate were measured using the carotid artery catheter attached to a pressure transducer relayed to a polygraph and preamplifier (Grass, Quincy, Mass). Heart rate was intermittently measured by counting the arterial pulse wave for 30 seconds.
as §4

Data set [5] deals with rats. In words: Rotarod performance after intrathecal injection. Conditions: rat; for Rotarod Time: mean ± SD. On the procedure: as §1, §2
as §3, with “(pre).” for “(pre). After a two-hour period, the test drug was administered and rats were examined once on the Rotarod at 30, 60, 90, 120, 180, and 240 minutes.”
as §4
A general note: The rotarod test checks motor coordination on a turning rod.

Setting [6] is: Bupivacaine 0.75% 40 μl IT, n=8, 15 min.
[7] abbreviates: Bupivacaine 0.75% 40 μl IT, n=8, 30 min.
The mark [8] stands for this setting: Bupivacaine 0.75% 40 μl IT, n=8, 60 min.
The mark [9] stands for this setting: Bupivacaine 0.75% 40 μl IT, n=8, 90 min.
The mark [10] stands for this setting: Bupivacaine 0.75% 40 μl IT, n=8, 120 min.
Setting [11] is: Bupivacaine 0.75% 40 μl IT, n=8, 180 min.
The mark [12] stands for this setting: Bupivacaine 0.75% 40 μl IT, n=8, 240 min.
Where [13] appears, read: Bupivacaine 0.75% 40 μl IT, n=8, 24 hrs.
[14] abbreviates: Bupivacaine 0.75% 40 μl IT, n=8, Pre (before drug injection).
Setting [15] is: bupivacaine 0.75% 40 μl intrathecal.
The mark [16] stands for this setting: bupivacaine 0.75% 40 μl intrathecal, fifteen minutes after administration.
Setting [17] is: LY293558 5 nmoles IT, n=8, 24 hrs.
Setting [18] is: LY293558 5 nmoles IT, n=8, Pre (before drug injection).

SMILES strings stand for the structures. Entries after “also recorded” stand apart in the source; their conditions may differ. Counter-ions that a name gives are not always drawn. Marks after values point to notes of the source that are not given here.

Here are results for two compounds from patent US20030130308A1, “Drugs for spinal anesthesia” (priority 2001, published 2003).

`CCCCN1CCCCC1C(=O)Nc1c(C)cccc1C` (stereo not shown) [Bupivacaine, Bupivacaine HCl]: the “Cumulative Placing Score” value is on record as 0 (0-0)* in the data set on rats [1] (setting [6]); 6 (0-12)* with rats [1] (setting [7]); 12 (1-12) with rats [1] (setting [8]); 12 (0-12) in the data set with rats [1] (setting [9]); 12 (12-12) in the data set on rats [1] (setting [10]); 12 (12-12) in the data set with rats [1] (setting [11]). The “Cumulative Placing Score” value in the data set with rats [1] (setting [12]), in the data set on rats [1] (setting [13]) and with rats [1] (setting [14]) was 12 (12-12) throughout. Further, the “placing reflex decreased for (P<0.05 vs Pre)” value with rats [1] (setting [15]) stood at 30 min. Moreover, the “sensory and motor responses” value in the data set on rats [2] (setting [15]) was “decreased”. Besides, the “time at which all rats had recovered withdrawal to pinprick” value in the data set with rats [3] (setting [15]) is 60 min. The “withdrawal to pinprick vs Pre” value in the data set on rats [3] (bupivacaine 0.75% 40 μl intrathecal, 15 minutes after injection, not eliminated in all tests) is recorded as “reduced”. For the same compound, in the data set on rats [4] (setting [15]), the “time by which blood pressure and heart rate changes resolved” value is ≤ 30 min. Moreover, the “heart rate change vs Pre” value in the data set with rats [4] (setting [16]) was “increased”. Also, the “mean arterial pressure change vs Pre” value in the data set with rats [4] (setting [16]) is reported as “decreased”. For the same compound, the “Rotarod Time” value in the data set on rats [5] (setting [6]) was found to be 5 ± 6 s; in the data set on rats [5] (setting [7]), 49 ± 42 s; with rats [5] (setting [8]), 135 ± 43 s; in the data set on rats [5] (setting [9]) it was 136 ± 39 s; in the data set on rats [5] (setting [10]) it was 137 ± 26 s; with rats [5] (setting [11]), 142 ± 15 s. Further, the “Rotarod Time” value in the data set on rats [5] (setting [12]) worked out at 149 ± 2 s; with rats [5] (setting [13]), 150 ± 0 s; in the data set with rats [5] (setting [14]) it was 146 ± 8 s. For the same compound, the “rotorod performance decreased for (P<0.05 vs Pre)” value in the data set on rats [5] (setting [15]) stood at 30 min.

On to `O=C(O)C1CC2CC(CCc3nnn[nH]3)CCC2CN1` (stereo not shown) [LY293558, 6-[2-(1(2)H-tetrazole-5-yl)ethyl]decahydroisoquinolone-3-carboxylic acid], for which the “placing reflex completely eliminated in all rats through” value in the data set with rats [1] (5 nmoles intrathecal) came to 90 min. For the same compound, in the data set on rats [1] (5 nmoles intrathecal), the “placing reflex impaired through (P<0.05 vs Pre)” value amounted to 3 h. Moreover, the “Cumulative Placing Score” value with rats [1] (setting [17]) and in the data set on rats [1] (setting [18]) was 12 (12-12) each time. For the same compound, in the data set with rats [2] (5 nmoles intrathecal vs bupivacaine 0.75% 40 μl), the “effects compared with bupivacaine” value was “more pronounced and sustained than bupivacaine; also recorded: more pronounced and prolonged”. Also, in the data set with rats [2] (5 nmoles intrathecal vs bupivacaine, from 30 minutes), the “greater motor deficits than bupivacaine (P<0.05) in all tests of motor function, through” value came out at 3 h. Also, the “sensory and motor blockade of the hindlimbs” value with rats [2] (5 nmoles intrathecal) was “reversible, sustained sensory and motor blockade”. In addition, the “sensory and motor responses blocked through” value in the data set on rats [2] (5 nmoles intrathecal) is 180 min. The “recovery of sensory and motor responses the following day” value with rats [2] (5 nmoles intrathecal, following day) was “complete recovery”. Besides, the “greater inhibition of pinprick than bupivacaine (P<0.05) through” value in the data set on rats [3] (5 nmoles intrathecal vs bupivacaine) amounted to 3 h. Besides, the “rats failed to respond to pin prick through (P<0.05 vs Pre)” value in the data set on rats [3] (5 nmoles intrathecal, from 15 minutes) turned out to be 2 h. The “recovery of pinprick response the next day” value in the data set on rats [3] (5 nmoles intrathecal, next day) is “recovered fully”. Further, the “change in blood pressure” value in the data set with rats [4] (5 nmoles intrathecal) is listed as “No change; also recorded: did not change”. In addition, the “change in heart rate” value in the data set on rats [4] (5 nmoles intrathecal) is listed as “No change; also recorded: did not change”. Also, the “Rotorod performance decreased through (P<0.05 vs Pre)” value with rats [5] (5 nmoles intrathecal) was 4 h. Also, the “recovery of Rotorod performance the next day” value in the data set on rats [5] (5 nmoles intrathecal, next day) was “full recovery”. Moreover, the “Rotarod Time” value in the data set on rats [5] (LY293558 5 nmoles IT, n=8, 15 min) is 3 ± 4 s; in the data set with rats [5] (LY293558 5 nmoles IT, n=8, 240 min), 115 ± 42 s; in the data set on rats [5] (setting [17]), 149 ± 5 s; in the data set on rats [5] (setting [18]), 144 ± 10 s.
